Test results: PubChem BioAssay (NCI)
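How tested: cells in 96-well plates exposed to compound for 48 hours at five concentrations. TGI marks complete inhibition of growth.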

Columns and labels:
Assay in all cases: growth of human tumour cells (NCI), 48 h
SK-OV-3 ovarian = tested on: SK-OV-3 ovarian
A498 renal = tested on: A498 renal
CCRF-CEM leukemia = tested on: CCRF-CEM leukemia
SK-MEL-2 melanoma = tested on: SK-MEL-2 melanoma
HCC-2998 colon = tested on: HCC-2998 colon
SW-620 colon = tested on: SW-620 colon
MDA-MB-231 breast = tested on: MDA-MB-231 breast
MCF7 breast = tested on: MCF7 breast
EKVX NSCLC = tested on: EKVX NSCLC
LOX IMVI melanoma = tested on: LOX IMVI melanoma
NCI-H522 lung = tested on: NCI-H522 lung
UO-31 renal = tested on: UO-31 renal
RPMI-8226 leukemia = tested on: RPMI-8226 leukemia
UACC-257 melanoma = tested on: UACC-257 melanoma
T-47D breast = tested on: T-47D breast

| SMILES | TGI (SK-OV-3 ovarian) | TGI (A498 renal) | TGI (CCRF-CEM leukemia) | TGI (SK-MEL-2 melanoma) | TGI (HCC-2998 colon) | TGI (SW-620 colon) | TGI (MDA-MB-231 breast) | TGI (MCF7 breast) | TGI (EKVX NSCLC) | TGI (LOX IMVI melanoma) | TGI (NCI-H522 lung) | TGI (UO-31 renal) | TGI (RPMI-8226 leukemia) | TGI (UACC-257 melanoma) | TGI (T-47D breast) |
| --- | --- | --- | --- | --- | --- | --- | --- | --- | --- | --- | --- | --- | --- | --- | --- |
| C[C@]12CC(c3ccccc3O1)C(C(=O)NC13CC4CC(CC(C4)C1)C3)C(=O)N2 (stereo partly drawn) | > 100 µM | > 100 µM | 61.1 µM | 43 µM | > 100 µM | > 100 µM | > 100 µM | > 100 µM | 19.3 µM | 57.9 µM | > 100 µM | 44.3 µM | 31.3 µM | > 100 µM | – |
| COc1ccc(CN(CCc2c[nH]c3ccccc23)Cc2ccc(OC)cc2)cc1 | 17.9 µM | 9.3 µM | > 100 µM | 8.29 µM | 43.1 µM | > 22 µM | – | > 100 µM | 20.5 µM | – | 8.77 µM | 6.8 µM | > 41.9 µM | 14.3 µM | – |
| O=C(Cc1ccccc1)c1ccc2[nH]c(=O)oc2c1 | > 100 µM | > 100 µM | > 100 µM | > 100 µM | – | > 100 µM | > 100 µM | > 100 µM | 64.4 µM | > 100 µM | – | – | 64.4 µM | > 100 µM | – |
| CC(c1cccc2ccccc12)/[N+]([O-])=C/c1ccccc1 (stereo not drawn) | > 100 µM | > 100 µM | > 100 µM | > 100 µM | > 100 µM | > 100 µM | – | – | > 100 µM | > 100 µM | > 100 µM | > 100 µM | > 100 µM | > 100 µM | – |
| O=C1CCCC2=C1CC1=C(CCCC1=O)N2c1cccc2ccccc12 | > 100 µM | > 100 µM | > 100 µM | – | > 100 µM | > 100 µM | – | > 100 µM | > 100 µM | > 100 µM | – | > 100 µM | > 100 µM | – | – |
| COc1ccc2c3ccc4c(c3n(C)c2c1)C(=O)c1ccccc1C4=O | > 100 µM | > 100 µM | > 100 µM | – | > 100 µM | > 100 µM | – | – | > 100 µM | – | > 100 µM | > 100 µM | > 100 µM | > 100 µM | – |
| COC(=O)N/N=C/c1oc(-c2cccc([N+](=O)[O-])c2)c(-c2cccc([N+](=O)[O-])c2)c1[N+](=O)[O-] | > 100 µM | – | 78.3 µM | – | > 100 µM | > 100 µM | – | – | > 100 µM | > 100 µM | > 100 µM | > 100 µM | > 100 µM | > 100 µM | – |
| S=C(Nc1cccc(Cl)c1)Nc1ccccn1 | > 100 µM | – | > 100 µM | > 100 µM | – | > 100 µM | – | > 100 µM | > 100 µM | > 100 µM | – | > 100 µM | > 100 µM | > 100 µM | > 100 µM |
| CC1[C@@H](OCc2ccccc2)COC(=O)N1Cc1ccccc1 (stereo partly drawn) | > 100 µM | – | > 100 µM | > 100 µM | – | > 100 µM | > 100 µM | > 100 µM | > 100 µM | > 100 µM | – | > 100 µM | > 100 µM | > 100 µM | – |
| CCOP(=O)(OCC)/C(C#N)=C/c1ccco1 | > 100 µM | > 100 µM | > 100 µM | > 100 µM | > 100 µM | > 100 µM | – | – | > 100 µM | > 100 µM | > 100 µM | > 100 µM | > 100 µM | > 100 µM | – |
| COC1OC(CO)C(O)C(OC(=O)c2cc(O)c(O)c(O)c2)C1OC(=O)c1cc(O)c(O)c(O)c1 (stereo not drawn) | > 100 µM | – | > 100 µM | > 100 µM | – | > 100 µM | > 100 µM | > 100 µM | > 100 µM | 68.2 µM | > 100 µM | > 100 µM | > 100 µM | > 100 µM | – |
| CC(C)CCC[C@@H](C)C1CCC2[C@@H]3CCC4CC(CCC=C(c5cc(Cl)c(OC(=O)c6ccccc6)c(C(=O)O)c5)c5cc(Cl)c(OC(=O)c6ccccc6)c(C(=O)O)c5)CC[C@]4(C)C3CC[C@@]21C (stereo partly drawn) | > 100 µM | > 100 µM | > 100 µM | > 100 µM | > 100 µM | > 100 µM | 26.5 µM | > 100 µM | > 100 µM | – | > 100 µM | > 100 µM | > 100 µM | > 100 µM | – |
| CC1=NN(C(=O)Cc2ccccc2)C(=O)/C1=C\C=C\c1ccccc1 | – | – | > 100 µM | > 100 µM | > 100 µM | > 100 µM | – | – | > 100 µM | > 100 µM | > 100 µM | > 100 µM | > 100 µM | > 100 µM | – |
| O=C(c1ccncc1)n1nc(-c2ccccc2)c(N=Nc2ccc([N+](=O)[O-])cc2)c1-c1ccccc1 | > 100 µM | > 100 µM | – | > 100 µM | > 100 µM | > 100 µM | – | – | 45.8 µM | – | > 100 µM | 86.2 µM | > 100 µM | > 100 µM | – |
